Where two headings read alike, the source gives them in different places.
Legend:
[1] = system: CD34+-derived SCD erythroid cells; test: Hemoglobin (HbF, HbS, HbA2) content by HPLC in differentiated CD34+-derived SCD erythroid cells; type: cell-based, human
Description: To obtain the data presented here, we used the lentiviral vector pCL-ZF-Ldb1, (FIG. 11, top vector map), which carries a zinc-finger protein that specifically binds the γ-globin promoters, fused to the self-association (SA) domain of Ldb1, as well as a green fluorescent protein under the control of the erythroid specific ankyrin promoter. […] Cell, 2014. 158(4): p. 849-60].
In particular, we analyzed the mRNA and protein content of erythroblasts derived from 10 SCD subjects. CD34+ cells isolated from peripheral blood mononuclear cells (PBMCs) were frozen and used for independent replicate experiments. Infection with pCL-ZF-Ldb1 was performed on pro-erythroblast within the first 10 days of the expansion phase.
A scheme of the experimental procedures is illustrated in FIG. 16. […] Exp Hematol, 2005. 33(12): p. […] J Clin Invest, 2008. 118(1): p. […] Nat Med, 2013. 19(3): p. 291-4]. Studies were performed on day 8 of differentiation phase, at the orthochromatophilic stage when high amounts of hemoglobin were accumulated.
(§1) CD34+ cells selection from blood samples was performed by immunomagnetic separation, using the CD34 microbeads kit (Miltenyi Biotec Inc., Auburn, Calif.). These cells were then expanded following a modified version of the protocol described by Leberbauer and colleagues. Cells were seeded in 5 mL of serum-free StemSpan with 50 μL of StemSpan CC-100 cytokine cocktail (both from Stemcell Technologies, Vancouver, BA, Canada), 2 U/mL Erytrhopoietin (Amgen, Thousand Oaks, Calif.), 10^-6 M dexamethasone (Sigma) and 1% penicillin streptomycin. CD34+ cultures were kept undifferentiated by refreshing the medium twice a week and density gradient centrifugation was used to remove both dead and spontaneously differentiating cells. At this stage cells were either frozen (with 50% characterized Hyclone FBS, 10% DMSO, Sigma, and 40% Iscove's Modified DMEM, Cellgro), or used for experiments. After 10 days in phase I, cells were transferred into phase II media containing α-modified essential medium supplemented with 30% fetal calf serum and 10^-5 M β-mercaptoethanol. Erythropoietin was added (5 U/mL) to stimulate erythroid differentiation.

SCD erythroblasts = test: Erythroid cell count / viability (benzidine+ cells) of treated SCD erythroblasts; details: same treatments and doses as HbF induction comparison
Protocol: as §1

[2] = SCD erythroid cells, summary in description
[3] = day 8 of differentiation, same treatments and doses as net HbF increase

| Structure (SMILES) | induction of HbF (qualitative summary) [1] | net HbF increase [1] | net HbS decrease [1] | induction of HbF (qualitative summary) [1, 2] | net HbS decrease [1, 3] | viability compared to untreated samples (SCD erythroblasts) | net HbS decrease ([1]; 192 h) | net HbF increase ([1]; 192 h, 30 µM) |
| --- | --- | --- | --- | --- | --- | --- | --- | --- |
| N[C@@H]1C[C@H]1c1ccccc1 (racemic) [tranyl-cypromine, tranylcypromine] | intermediate effect | 8.08%±6.28 | −6.93%±6.64 | – | – | – | – | – |
| CCCC(=O)[O-].[Na+] [butyrate, sodium butyrate] | – | 4.84%±5.03 | – | marginal HbF induction | −4.90%±7.94 | reduced viability | – | – |
| NC(=O)NO [hydroxyurea] | – | – | – | marginal HbF induction | −3.48%±4.68 | reduced viability | – | – |
| Nc1cccc2c1C(=O)N(C1CCC(=O)NC1=O)C2=O (stereo not shown) [pomalidomide] | – | – | – | – | – | reduced viability | 11.61−%±9.27 | 11.84%±9.02 |
